From US20250230193A1, “CYCLIC COMPOUND HAVING SELECTIVE KRAS INHIBITORY EFFECT ON HRAS AND NRAS” (CHUGAI SEIYAKU KABUSHIKI KAISHA, priority 2022, published 2025)
*1 amine or outer side, *2 acyl side, *3 side chain or, on linkers, in order; H or OH if unused. Where a SMILES comes first, the peptide text is derived from it. Bridges are numbered along the chain shown (N, C = ends). [ ]: non-standard residue; d: D form. The star is where a group is joined. hPhe(3,5-F2-4-CF3) = N[C@@H](CCc1cc(F)c(C(F)(F)F)c(F)c1)C(=O)O; hPhe(3-Cl-4-CF3) = N[C@@H](CCc1ccc(C(F)(F)F)c(Cl)c1)C(=O)O; NPrPhe(4-CF3) = CCCN[C@@H](Cc1ccc(C(F)(F)F)cc1)C(=O)O; NMeAbu(4,4,4-F3) = CN[C@@H](CC(F)(F)F)C(=O)O; X5 = CCCN([C@H](C(=O)[*:2])C1CCCC1)[*:1]; NMeGly(cPent) = CN[C@H](C(=O)O)C1CCCC1; NMeD = CN[C@@H](CC(=O)O)C(=O)O; NMeL = CN[C@@H](CC(C)C)C(=O)O; Morpholide = C1CN(*)CCO1; Ac5c = NC1(C(=O)O)CCCC1; Aze = O=C(O)[C@@H]1CCN1; Sar = CNCC(=O)O

Key:
[1] = biological target: GDP-bound NRAS wild-type protein (Homo sapiens, UniProt P01111); experiment: Binding to NRAS by surface plasmon resonance (SPR), Single Cycle Kinetics; settings: for NRAS/KRAS (ratio of KD value with respect to NRAS to KD value with respect to KRAS): GDP-bound NRAS wild-type vs GDP-bound KRAS wild-type
[2] = biological target: GDP-bound HRAS wild-type protein (Homo sapiens, UniProt P01112); experiment: Binding to HRAS by surface plasmon resonance (SPR), Single Cycle Kinetics; settings: for HRAS/KRAS (ratio of KD value with respect to HRAS to KD value with respect to KRAS): GDP-bound HRAS wild-type vs GDP-bound KRAS wild-type
[3] = KD ratio NRAS/KRAS, class symbols
[4] = KD ratio HRAS/KRAS, class symbols

GDP-bound HRAS wild-type protein, sequence (P01112 whole entry): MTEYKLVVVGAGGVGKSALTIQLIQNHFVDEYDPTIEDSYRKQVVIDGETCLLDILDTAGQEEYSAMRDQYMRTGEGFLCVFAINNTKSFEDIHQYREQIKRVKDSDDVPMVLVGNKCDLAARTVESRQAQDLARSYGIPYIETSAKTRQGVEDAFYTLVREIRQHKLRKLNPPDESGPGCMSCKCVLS
GDP-bound NRAS wild-type protein, sequence (P01111 whole entry): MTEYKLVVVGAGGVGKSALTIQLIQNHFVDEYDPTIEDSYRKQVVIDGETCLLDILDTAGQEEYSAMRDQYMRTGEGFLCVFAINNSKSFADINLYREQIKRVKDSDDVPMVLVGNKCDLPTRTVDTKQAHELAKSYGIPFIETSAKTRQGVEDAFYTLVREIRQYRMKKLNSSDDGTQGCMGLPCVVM

CCO[C@@H]1C[C@H]2C(=O)NC3(CCC3)C(=O)N(C)[C@@H](C3CCCC3)C(=O)N(C)[C@H](C(=O)N(C)C)CC(=O)N(C)[C@@H](CC3CCCC3)C(=O)N[C@@H]([C@@H](C)CC)C(=O)N(C)CC(=O)N(C)[C@H]3C/C=C\CCN(C3=O)[C@@H](Cc3ccc(C)cc3)C(=O)N(C)CC(=O)N[C@@H](CCc3ccc(C4CC4)c(F)c3)C(=O)N2C1 [PP2683]
NRAS/KRAS (ratio of KD value with respect to GDP-bound NRAS wild-type protein to KD value with respect to KRAS) [1, 3]: A (a compound having 10 or more and less than 20 is denoted as A)
HRAS/KRAS (ratio of KD value with respect to GDP-bound HRAS wild-type protein to KD value with respect to KRAS) [2, 4]: A (a compound having 10 or more and less than 20 is denoted as A)

CCCN1C(=O)[C@@H]2CCN2C(=O)CN(C)C(=O)[C@H]([C@@H](C)CC)NC(=O)[C@H](CC(C)C)N(C)C(=O)C[C@@H](C(=O)N2CCOCC2)N(C)C(=O)[C@H](CC(F)(F)F)N(C)C(=O)C2(CCCC2)NC(=O)[C@@H]2CCCN2C(=O)[C@H](CCc2cc(F)c(C(F)(F)F)c(F)c2)NC(=O)CN(C)C(=O)[C@@H]1Cc1ccc(C(F)(F)F)cc1 [PP0803] ([NMeL]I[Sar][Aze][NPrPhe(4-CF3)][Sar][hPhe(3,5-F2-4-CF3)]P[Ac5c][NMeAbu(4,4,4-F3)][NMeD]-Morpholide; lactam N-11)
NRAS/KRAS (ratio of KD value with respect to GDP-bound NRAS wild-type protein to KD value with respect to KRAS) ([1]; KD ratio NRAS/KRAS, SPR): C (A compound having a KD ratio of 0.1 or more and less than 3 is denoted as C)
HRAS/KRAS (ratio of KD value with respect to GDP-bound HRAS wild-type protein to KD value with respect to KRAS) ([2]; KD ratio HRAS/KRAS, SPR): B (a compound having 3 or more and less than 10 is denoted as B)

CCO[C@@H]1C[C@H]2C(=O)NC(C)(C)C(=O)N(C)[C@@H](C3CCCC3)C(=O)N(CC)[C@H](C(=O)N3CCOCC3)CC(=O)N(C)[C@@H](CC(C)C)C(=O)N[C@@H]([C@@H](C)CC)C(=O)N(C)CC(=O)N(C)[C@H]3CCCCCN(C3=O)[C@@H](Cc3ccc(C(F)(F)F)cc3)C(=O)N(C)CC(=O)N[C@@H](CCc3cc(F)c(C(F)(F)F)c(F)c3)C(=O)N2C1 [PP0958]
NRAS/KRAS (ratio of KD value with respect to NRAS to KD value with respect to KRAS) ([1]; KD ratio, SPR): B (a compound having 3 or more and less than 10 is denoted as B)
HRAS/KRAS (ratio of KD value with respect to HRAS to KD value with respect to KRAS) ([2]; KD ratio, SPR): B (a compound having 3 or more and less than 10 is denoted as B)

CCCN1C(=O)CN(C)C(=O)CN(C)C(=O)[C@H]([C@@H](C)CC)NC(=O)[C@H](CC(C)C)N(C)C(=O)C[C@@H](C(=O)N2CCOCC2)N(C)C(=O)[C@H](C2CCCC2)N(C)C(=O)C2(CCCC2)NC(=O)[C@@H]2CCCN2C(=O)[C@H](CCc2ccc(C(F)(F)F)c(Cl)c2)NC(=O)CN(C)C(=O)[C@@H]1C1CCCC1 [PP0061] ([NMeL]I[Sar][Sar][X5][Sar][hPhe(3-Cl-4-CF3)]P[Ac5c][NMeGly(cPent)][NMeD]-Morpholide; lactam N-11)
NRAS/KRAS (ratio of KD for GDP-bound NRAS wild-type to KD for KRAS) ([1]; KD ratio NRAS/KRAS, SPR): B (a compound having 3 or more and less than 10 is denoted as B)
HRAS/KRAS (ratio of KD for GDP-bound HRAS wild-type to KD for KRAS) ([2]; KD ratio HRAS/KRAS, SPR): C (A compound having a KD ratio of 0.1 or more and less than 3 is denoted as C)

CCOC[C@H]1C(=O)N[C@@H]([C@@H](C)CC)C(=O)N(C2CC2)CC(=O)N(C)[C@H]2C/C=C\CCN(C2=O)[C@@H](CC2CCCCC2)C(=O)N(C)CC(=O)N[C@@H](CCc2ccc(C(F)(F)F)c(OC)c2)C(=O)N2C[C@H](OCC)C[C@H]2C(=O)N(C)C2(CCC2)C(=O)N(C)[C@@H](C2CCCC2)C(=O)N(C)[C@H](C(=O)N(C)C)CC(=O)N1C [PP2342]
NRAS/KRAS (ratio of KD value with respect to NRAS to KD value with respect to KRAS) ([1]; SPR): A (a compound having 10 or more and less than 20 is denoted as A)
HRAS/KRAS (ratio of KD value with respect to HRAS to KD value with respect to KRAS) ([2]; SPR): A (a compound having 10 or more and less than 20 is denoted as A)

CCCOC[C@H]1C(=O)N[C@@H]([C@@H](C)CC)C(=O)N2CCC[C@H]2C(=O)N(C)[C@H]2C/C=C\CCN(C2=O)[C@@H](Cc2ccc(C)cc2)C(=O)N(C)CC(=O)N[C@@H](CCc2ccc(C(F)(F)F)c(OC)c2)C(=O)N2C[C@@H](C)C[C@H]2C(=O)N(C)C2(CCC2)C(=O)N(C)[C@@H](C2CCCC2)C(=O)N(C)[C@H](C(=O)N(C)C)CC(=O)N1C [PP2369]
NRAS/KRAS (ratio of KD value with respect to NRAS to KD value with respect to KRAS) ([1]; SPR): A (a compound having 10 or more and less than 20 is denoted as A)
HRAS/KRAS (ratio of KD value with respect to HRAS to KD value with respect to KRAS) ([2]; SPR): B (a compound having 3 or more and less than 10 is denoted as B)

CC[C@H](C)[C@@H]1NC(=O)[C@H](COC)N(C)C(=O)C[C@@H](C(=O)N(C)C)N(C)C(=O)[C@H](C2CCCCC2)N(C)C(=O)C2(CC(C)(C)C2)NC(=O)[C@@H]2C[C@@H](OC(C)C)CN2C(=O)[C@H](CCc2cc(F)c(C(F)(F)F)c(F)c2)NC(=O)CN(C)C(=O)[C@H](Cc2ccc(C(F)(F)F)cc2)N2CC/C=C\C[C@@H](C2=O)N(C)C(=O)CN(C)C1=O [PP2654]
NRAS/KRAS (ratio of KD value with respect to GDP-bound NRAS wild-type protein to KD value with respect to KRAS) [1, 3]: A (a compound having 10 or more and less than 20 is denoted as A)
HRAS/KRAS (ratio of KD value with respect to GDP-bound HRAS wild-type protein to KD value with respect to KRAS) [2, 4]: A (a compound having 10 or more and less than 20 is denoted as A)
